# From BindingDB's records for doi:10.1021/jm00168a025 (State University of New York, 1990)
# Molecular target: Squalene monooxygenase (Sus scrofa)
# Assay: Inhibition of pig liver squalene epoxidase
row,Compound,IC50 [µM]
1,CC(C)=CCC/C(C)=C/CC/C(C)=C/CC/C=C(\C)CC/C=C(\C)CCCCO,4
2,CC(C)=CCC/C(C)=C/CC/C(C)=C/CC/C=C(\C)CC/C=C(\C)CC/C=C(\C)CCCO,> 400
3,CC(C)=CCC/C(C)=C/CC/C(C)=C/CC/C=C(\C)CC/C=C(\C)CCCO,4

# Results, then the compound that gave them:
row,IC50 [µM],Compound
1,> 400,CC(C)=CCC/C(C)=C/CC/C(C)=C/CCCO
2,100,CC(C)=CCC/C(C)=C/CC/C(C)=C/CC/C=C(\C)CCCO
